From patent publication US8809338B2, “1,2,3-triazole-based peptidomimetic integrin inhibitors for the diagnosis and therapy of tumors” (Universita' Degli Studi di Firenze, priority 2010, dated 2014)
Entries after “also recorded” stand apart in the source; their conditions may differ.

Key:
αvβ3 integrin = molecular target: T1, αvβ3 integrin (Homo sapiens, UniProt P05106+P06756); assay: Solid-phase receptor binding assay, [125I]-Echistatin competition, αvβ3; settings: for IC50: αvβ3 purified from human placenta, competition with [125I]-Echistatin
T1 construct: purified from human placenta; from tissue; host or cells: human placenta
Protocol: Solid-phase receptor binding assay. [^125I]-Echistatin, labelled according to the lactoperoxidase method and with a specific activity of 2000 Ci/mmol, and αvβ3 and αvβ5 integrins, purified from human placenta, are used for the in vitro assays. Purified αvβ3 and αvβ5 receptors are respectively diluted to 500 ng/mL and 1000 ng/mL in 20 mM Tris (pH 7.4), 150 mM NaCl, 2 mM CaCl2, 1 mM MgCl2, 1 mM MnCl2. An amount of the diluted receptor solutions (100 μL/well) is added to a 96-well microtiter plate (Optiplate-96 HB, PerkinElmer Life Sciences, Boston, Mass.) and incubated at 4° C. for 16 h. Then, the plate is washed once with an incubation buffer [20 mM Tris (pH 7.4), 150 mM NaCl, 2 mM CaCl2, 1 mM MgCl2, 1 mM MnCl2, 1% BSA] and incubated for additional 2 h at room temperature. The plate is treated twice with the same buffer, and competitive binding experiments are carried out with a fixed concentration of [^125I]-Echistatin (0.05 nM and 0.1 nM for αvβ3 and αvβ5 respectively) and concentrations of the test compounds ranging from 0.01 nM to 100 μM. All the assays are carried out in triplicate at a final volume of 0.2 mL, each containing the following species: 0.05 mL of [^125I]-Echistatina, 0.04 mL of the test compounds, and 0.11 mL of the incubation buffer. Non-specific binding is defined as the [^125I]-Echistatin bound in the presence of excess (1 μM) of non-labelled echistatin. After an incubation period of 3 h at room temperature, the plate is washed three times with the incubation buffer, then the radioactivity is measured in a plate counter Top-Count NXT (Perkin Elmer Life Sciences, Boston, Mass.) using 200 μL/well of scintillating liquid MicroScint-40 (PerkinElmer Life Sciences, Boston, Mass.). Data analysis. IC50 values are determined by fitting the binding inhibition data with a non-linear regression, using the GraphPad Prism 4.0 software package (GraphPad Prism, San Diego, Calif.). […] The inhibition curves better fitted according to a two-sites model (p<0.05) rather than a single-site model are considered to be significant.

αvβ5 integrin = molecular target: T2, αvβ5 integrin (Homo sapiens, UniProt P06756+P18084); assay: Solid-phase receptor binding assay, [125I]-Echistatin competition, αvβ5; settings: αvβ5 purified from human placenta; competition with [125I]-Echistatin
T2 construct: purified from human placenta; from tissue; host or cells: human placenta
Protocol: Solid-phase receptor binding assay. [^125I]-Echistatin, labelled according to the lactoperoxidase method and with a specific activity of 2000 Ci/mmol, and αvβ3 and αvβ5 integrins, purified from human placenta, are used for the in vitro assays. Purified αvβ3 and αvβ5 receptors are respectively diluted to 500 ng/mL and 1000 ng/mL in 20 mM Tris (pH 7.4), 150 mM NaCl, 2 mM CaCl2, 1 mM MgCl2, 1 mM MnCl2. An amount of the diluted receptor solutions (100 μL/well) is added to a 96-well microtiter plate (Optiplate-96 HB, PerkinElmer Life Sciences, Boston, Mass.) and incubated at 4° C. for 16 h. Then, the plate is washed once with an incubation buffer [20 mM Tris (pH 7.4), 150 mM NaCl, 2 mM CaCl2, 1 mM MgCl2, 1 mM MnCl2, 1% BSA] and incubated for additional 2 h at room temperature. […] After an incubation period of 3 h at room temperature, the plate is washed three times with the incubation buffer, then the radioactivity is measured in a plate counter Top-Count NXT (Perkin Elmer Life Sciences, Boston, Mass.) using 200 μL/well of scintillating liquid MicroScint-40 (PerkinElmer Life Sciences, Boston, Mass.). […] IC50 values are determined by fitting the binding inhibition data with a non-linear regression, using the GraphPad Prism 4.0 software package (GraphPad Prism, San Diego, Calif.). […]

A375M melanoma cell line = assay: Melanoma cell line assay, inhibition of cell adhesion to RGD-containing substrates; assay type: cell-based, human; settings: compounds at 10, 1.0 and 0.1 μM, FIG. 3
Protocol: A series of experiments carried out using the flux cytometry technique and specific monoclonal antibodies, allowed for the setup of particular human melanoma cells characterized by an over-expression of integrin receptors. Such cells have been used to test the capability of selected compounds of formula (I) at 10, 1.0 and 0.1 μM concentrations, of inhibiting the binding between these cells and suitable substrates containing the RGD sequence, such as vitronectin, fibronectin, and osteopontin (FIG. 3).
Melanoma cell line assay. The selected cell line for this study is the A375M, which are in vivo selected melanoma cells starting from A375P cells isolated from a amelanotic human melanoma. The expression of the RGD-dependent integrinic pattern, comprising αvβ3, αvβ5, α5β1 integrins, of A375M cells is determined by the flux cytometry technique (FACScanto, Becton & Dickinson) and by RT-PCR. With aim to evaluate the ability of compounds of formula (I) of binding to integrins exposed to the melanoma cells surface, the inhibition of adhesion of such cells to vitronectin, fibronectin and osteopontin are measured. A spectrophotometric evaluation of the cellular content of the culture plates used in the adhesion tests allows for the precision and the correlation of the results obtained in different experiments.

Row | SMILES | IC50 (αvβ3 integrin) | other results
1 | N=C(N)NCCCc1cn(CC(=O)N[C@@H](CC(=O)O)c2ccccc2)nn1 [Compound 38] | 16.4 nM | IC50 (αvβ5 integrin): 1020 nM
2 | N=C(N)NCCCc1cn(CC(=O)NC(CC(=O)O)c2ccc(F)cc2)nn1 (centres unmarked) [Compound 48] | 215 nM | IC50 (αvβ5 integrin): 9900 nM; inhibition of adhesion of melanoma cells to fibronectin (A375M melanoma cell line): minor effect; inhibition of binding of melanoma cells to osteopontin (A375M melanoma cell line): significantly inhibits; also recorded: minor effect; inhibition of binding of melanoma cells to vitronectin (A375M melanoma cell line): significantly inhibits
3 | N=C(N)NCCCc1cn(CC(=O)NC(CC(=O)O)c2ccc(F)cc2)nn1 (centres unmarked) [Compound 49] | 101 nM | 
4 | Cc1ccc(S(=O)(=O)N(CCn2cc(CCNC(=N)N)nn2)CC(=O)O)cc1 [Compound 52] |  | inhibition at 1 µM (αvβ3 integrin; 1 μM concentration): 54%; inhibition at 10 µM (αvβ3 integrin; 10 μM concentration): 77%
5 | N=C(N)NCCCc1cn(CC(=O)N[C@@H](CC(=O)O)c2ccc(O)cc2)nn1 [Compound 54] | 2100 nM | 
6 | N=C(N)NCCCc1cn(CC(=O)NCCC(=O)O)nn1 [Compound 55] | 13 nM | 
7 | O=C(O)C[C@H](NC(=O)Cn1cc(CCCNCc2nc3ccccc3[nH]2)nn1)c1ccc(F)cc1 [Compound 57] | 200 nM | 
8 | N=C(NCCCc1cn(CC(=O)N[C@@H](CC(=O)O)c2ccccc2)nn1)NCCc1ccc(O)cc1 [Compound 59] | 308 nM | 
